Data as given in patent publication US20250092044A1, “Kinase Inhibitors” (Incyte Corporation, priority 2023, published 2025).
In brackets after ≈: the same amount, converted by molar mass. Like-named read-outs stand apart in the source and are kept apart here.

Experiments:
[1] = molecular target: pseudo-kinase domain (JH2) of human V617F mutant JAK2 (Homo sapiens (Human), UniProt O60674, F794H/V617F/W659A/W777A); experiment: JAK2 LanthaScreen JH2-V617F Binding Assay; details: read-out: JH2 V617F Bind IC50
Sequence of pseudo-kinase domain (JH2) of human V617F mutant JAK2 (O60674 536-812 V617F/W659A/W777A/F794H): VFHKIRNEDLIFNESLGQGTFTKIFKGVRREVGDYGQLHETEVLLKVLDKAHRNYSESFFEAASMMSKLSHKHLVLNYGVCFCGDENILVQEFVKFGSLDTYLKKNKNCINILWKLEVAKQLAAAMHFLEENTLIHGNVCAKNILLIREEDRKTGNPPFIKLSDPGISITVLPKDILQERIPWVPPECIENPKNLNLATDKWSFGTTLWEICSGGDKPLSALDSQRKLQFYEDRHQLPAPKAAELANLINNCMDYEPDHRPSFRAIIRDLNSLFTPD
Outline: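 Biotinylated His-Avi JAK2 JH2 (aa 536-812, V617F plus W659A/W777A/F794H; 0.26 nM) incubated 1 h at 25 °C with compound, 50 nM fluorescent JH2 tracer and 0.25 nM streptavidin-Tb in Tris pH 7.5 buffer. TR-FRET tracer displacement read; nonspecific binding with 2 mM ATP; IC50 from four-parameter fit.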

TRKA [2] = experiment: TRKA Enzymatic Assay; format: biochemical
Outline: (§1)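 Reaction contained 0.58 nM TRKA, 1 mM ATP, 500 nM biotinylated TK substrate and 62.5 nM SEB reagent in HEPES 50 mM pH 7.0 with 10 mM MgCl2, 1 mM DTT and 0.1 mM orthovanadate, 0.5% DMSO, ATP-initiated. After 60 min at room temperature, the TR-FRET 665/620 nm ratio was read. IC50 was fitted from percent control activity versus log concentration, with DMSO and no-ATP wells as controls.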

CYP3A4 = CYP3A4 (Homo sapiens (Human), UniProt P08684); experiment: Time Dependent Inhibition (TDI) of CYP; format: in vitro ADME; details: for TDI 3A4: Kobs, 30 min pre-incubation with NADPH; for TDI 3A4 / Kobs: human liver microsomes, 10 μM; for CYP function remaining / Kobs: time dependent inhibition of CYPs; for CYP function remaining: after pre-incubation with NADPH
Sequence of CYP3A4 (P08684 whole entry): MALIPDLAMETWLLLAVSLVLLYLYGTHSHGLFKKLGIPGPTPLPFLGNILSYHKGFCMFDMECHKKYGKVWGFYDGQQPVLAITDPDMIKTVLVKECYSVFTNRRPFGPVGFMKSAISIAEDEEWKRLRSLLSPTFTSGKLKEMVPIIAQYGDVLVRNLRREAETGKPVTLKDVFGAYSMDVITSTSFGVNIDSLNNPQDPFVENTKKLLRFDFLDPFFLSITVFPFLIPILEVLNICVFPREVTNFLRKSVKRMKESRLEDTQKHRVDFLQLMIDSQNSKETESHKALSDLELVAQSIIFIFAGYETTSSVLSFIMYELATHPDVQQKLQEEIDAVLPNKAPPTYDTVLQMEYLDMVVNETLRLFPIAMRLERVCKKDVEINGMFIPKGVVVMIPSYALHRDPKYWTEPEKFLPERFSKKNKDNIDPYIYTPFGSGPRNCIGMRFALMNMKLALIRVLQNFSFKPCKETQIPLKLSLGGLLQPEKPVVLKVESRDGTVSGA
Description: Inhibition of P450 enzymes can be classified as either reversible or time-dependent inhibition (TDI). This in vitro assay is designed to detect an increase in CYP inhibition as a result of biotransformation and/or bioactivation (TDI). Potential mechanisms for this include the formation of a tight-binding, quasi-irreversible inhibitory metabolite complex or the inactivation of P450 enzymes by covalent adduct formation of metabolites. While this experiment employs a 10-fold dilution to diminish metabolite concentrations and therefore effects of reversible inhibition, it is possible (but not common) that a metabolite that is an extremely potent CYP inhibitor could result in a positive result.
The results are from a cocktail of CYP specific probe substrates at 4 times their Km concentrations for CYP2C9 (diclofenac), CYP2C19 (S-mephenytoin), CYP2D6 (bufuralol) and CYP3A4 (midazolam) using human liver microsomes (HLM). The HLMs were pre-incubated with test compound(s) at a concentration 10 μM for 30 min in the presence (+N) or absence (−N) of a NADPH regenerating system, diluted 10-fold, and incubated for 8 min in the presence of the substrate cocktail with the addition of a fresh aliquot of NADPH regenerating system. A calibration curve of metabolite standards was used to quantitatively measure the enzyme activity using LC-MS/MS. In addition, incubations with known time dependent inhibitors, tienilic aicd (CYP2C9), ticlopidine (CYP2C19), paroxetine (CYP2D6), and troleandomycin (CYP3A4), used as positive controls were pre-incubated 30 min with or without a NADPH regenerating system.
The percentage of control CYP2C9, CYP2C19, CYP2D6, and CYP3A4 activity remaining following pre-incubation of the compounds with NADPH is corrected for the corresponding control vehicle activity and then calculated based on 0 minutes as 100%. A linear regression plot of the natural log of % activity remaining versus time for each isozyme is used to calculate the slope. The −slope is equal to the rate of enzyme loss, or the Kobs. […] Examples 29-30 have Kobs from 0.005-0.02 indicating a medium to low potential for time dependent inhibition of CYPs corresponding to 70-90% CYP function remaining.

FaSSIF Solubility Assay = format: physicochemical; details: FaSSIF (fasted state simulated intestinal fluid), 25 °C, pH 6.5, fassif, thermodynamic from solid, FaSSIF pH=6.5, 25° C.
Description: The FaSSIF (Fasted State Simulated Intestinal Fluid) solubility assay can predict how an oral drug is likely to be dissolved and potentially absorbed in the upper intestine after drinking a glass of water. FaSSIF solubility assay utilizes biorelevant intestinal media (Biorelevant, Part #FFF01) comprised of physiological surfactants, bile salts, and phospholipids that are present in the gastrointestinal fluids it mimics. FaSSIF (pH=6.5) has the average pH of a fasted intestinal fluid with similar osmolarity. The FaSSIF buffer was prepared by adding 20 mL of phosphate buffer to FaSSIF Powder. The buffer was then added to the dry compound of interest at a concentration of 1 mg/mL and then incubated at 25° C. for 24 hours in a Rototherm Plus (Part #H2024). After incubation, the Eppendorf tubes were centrifuged and run on an Agilent 1260 LC-MS. The LC-MS method is a 5 min gradient method of 2% to 95% acetonitrile with water (0.05% TFA) using a Sunfire C18, 5 um 2.1×50 mm (Part #186002539) column. A dry reference compound of interest was diluted to a known 1 mg/mL concentration in 1:1 of water and acetonitrile. Step-wise serial dilutions were performed and run on an Agilent 1260 LC-MS using the same conditions to make a standard curve. The area under the curve is reported for the compound of interest in FaSSIF buffer and the reference standards. Calculations were performed and the predicted solubility, μg/mL, was reported for compounds of the examples.

TRKA [3] = molecular target: TRKA (Homo sapiens (Human), UniProt P04629); experiment: TRKA Enzymatic Assay; format: biochemical; details: 1 mM ATP
Sequence of TRKA (Homo sapiens (Human), UniProt P04629) (P04629 33-796, species assumed): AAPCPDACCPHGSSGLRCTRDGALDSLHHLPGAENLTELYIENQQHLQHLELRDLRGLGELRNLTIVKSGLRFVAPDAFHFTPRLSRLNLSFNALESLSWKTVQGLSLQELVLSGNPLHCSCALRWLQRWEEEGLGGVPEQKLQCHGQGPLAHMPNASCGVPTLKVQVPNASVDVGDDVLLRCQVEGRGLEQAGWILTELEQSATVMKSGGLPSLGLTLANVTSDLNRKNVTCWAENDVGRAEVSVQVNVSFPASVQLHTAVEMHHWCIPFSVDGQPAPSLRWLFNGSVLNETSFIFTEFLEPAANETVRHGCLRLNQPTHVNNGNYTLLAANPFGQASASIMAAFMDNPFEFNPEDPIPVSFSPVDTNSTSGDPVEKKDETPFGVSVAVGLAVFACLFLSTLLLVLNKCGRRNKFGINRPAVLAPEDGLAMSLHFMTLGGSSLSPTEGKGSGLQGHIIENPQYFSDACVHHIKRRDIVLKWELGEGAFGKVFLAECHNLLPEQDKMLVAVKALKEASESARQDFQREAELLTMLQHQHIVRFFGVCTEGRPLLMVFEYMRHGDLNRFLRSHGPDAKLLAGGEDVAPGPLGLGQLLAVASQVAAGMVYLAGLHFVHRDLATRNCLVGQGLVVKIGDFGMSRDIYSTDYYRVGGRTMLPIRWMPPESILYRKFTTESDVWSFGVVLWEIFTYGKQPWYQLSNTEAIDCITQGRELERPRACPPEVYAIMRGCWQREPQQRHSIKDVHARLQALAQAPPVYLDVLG
Outline: as §1

Row | Structure (SMILES) | IC50 [1] [nM] | Selectivity TRKA/JH2 V617F (TRKA [2]) | TDI 3A4 (CYP3A4) | CYP function remaining (CYP3A4) | Kobs (CYP3A4) | solubility at 24 h (FaSSIF Solubility Assay; read-out: FaSSIF solubility) [µg/mL] | solubility at 24 h (FaSSIF Solubility Assay; read-out: Solubility Fassif) [µg/mL] | IC50 (TRKA [3]) [nM]
1 | COc1nn(C)cc1-c1[nH]c2ncc3c(c2c1-c1ccc2c(cnn2C)c1)n(C1CCOCC1)c(=O)n3C [Comparative Example A, reference compound] | ≤ 10 | ** (selectivity of >500-fold to ≤1500-fold) | ⋄⋄⋄⋄ (≥0.04) | about 30% | around 0.04 | < 20 | ≤ 50 | 
2 | [2H]C([2H])([2H])n1ncc2cc(-c3c(-c4cn(C)nc4OC)[nH]c4ncc5c(c34)n(C3CCOCC3)c(=O)n5C)ccc21 [Comparative Example B, reference compound] | ≤ 10 | ** (selectivity of >500-fold to ≤1500-fold) | ⋄⋄⋄⋄ (≥0.04) | about 30% | around 0.04 |  | ≤ 50 | > 2500
3 | COc1nn(C)cc1-c1[nH]c2ncc3c(c2c1-c1ccc2c(cnn2C)c1)n([C@H]1CC[C@@H](CC#N)CC1)c(=O)n3C [E, reference compound] | ≤ 10 | ** (selectivity of >500-fold to ≤1500-fold) |  |  |  |  | ≤ 50 | 
4 | [2H]C([2H])([2H])N(Cc1ccc(-c2[nH]c3ncc4c(c3c2-c2ccc3c(c2)CC(C)(C)O3)n([C@@H]2CC[C@@H](NC(=O)OC)C2)c(=O)n4C([2H])([2H])[2H])cc1)C([2H])([2H])[2H] [Example 25, Methyl ((1R,3R)-3-(7-(4-((bis(methyl-d3)amino)methyl)phenyl)-8-(2,2-dimethyl-2,3-dihydrobenzofuran-5-yl)-3-(methyl-d3)-2-oxo-3,6-dihydroimidazo[4,5-d]pyrrolo[2,3-b]pyridin-1(2H)-yl)cyclopentyl)carbamate] | ≤ 10 | **** (selectivity of >1750-fold to ≤5000-fold) | ⋄ (≤0.005) |  |  |  | 50 to 500 (≈ 80.9 to 809 µM) | 250 to 1250
5 | [2H]C([2H])([2H])n1c(=O)n([C@@H]2CC[C@@H](NC(=O)OC)C2)c2c3c(-c4ccc5c(cnn5C(C)C)c4)c(-c4ccc(CN(C)C)cc4)[nH]c3ncc21 [Example 26, Methyl ((1R,3R)-3-(7-(4-((dimethylamino)methyl)phenyl)-8-(1-isopropyl-1H-indazol-5-yl)-3-(methyl-d3)-2-oxo-3,6-dihydroimidazo[4,5-d]pyrrolo[2,3-b]pyridin-1(2H)-yl)cyclopentyl)carbamate] | ≤ 10 | ***** (selectivity of >5000-fold to ≤12500-fold) | ⋄ (≤0.005) |  |  |  | > 500 | 1250 to 2500
6 | [2H]C([2H])([2H])N(Cc1ccc(-c2[nH]c3ncc4c(c3c2-c2ccc(OCCOC)cc2)n([C@@H]2CC[C@@H](NC(=O)OC)C2)c(=O)n4C([2H])([2H])[2H])cc1)C([2H])([2H])[2H] [Example 27, Methyl ((1R,3R)-3-(7-(4-((bis(methyl-d3)amino)methyl)phenyl)-8-(4-(2-methoxyethoxy)phenyl)-3-(methyl-d3)-2-oxo-3,6-dihydroimidazo[4,5-d]pyrrolo[2,3-b]pyridin-1(2H)-yl)cyclopentyl)carbamate] | ≤ 10 | ***** (selectivity of >5000-fold to ≤12500-fold) | ⋄ (≤0.005) |  |  |  | > 500 | 1250 to 2500
7 | COC(=O)N[C@@H]1CC[C@@H](n2c(=O)n(C)c3cnc4[nH]c(-c5ccc(CN(C)C)cc5)c(-c5ccc(F)cc5)c4c32)C1 [Example 28, Methyl ((1R,3R)-3-(7-(4-((dimethylamino)methyl)phenyl)-8-(4-fluorophenyl)-3-methyl-2-oxo-3,6-dihydroimidazo[4,5-d]pyrrolo[2,3-b]pyridin-1(2H)-yl)cyclopentyl)carbamate] | ≤ 10 | **** (selectivity of >1750-fold to ≤5000-fold) | ⋄ (≤0.005) |  |  |  | > 500 | > 2500
8 | [2H]C([2H])([2H])N(Cc1ccc(-c2[nH]c3ncc4c(c3c2-c2ccc3c(c2)COC3(C)C)n([C@@H]2CC[C@@H](NC(=O)OC)C2)c(=O)n4C([2H])([2H])[2H])cc1)C([2H])([2H])[2H] [Example 29, Methyl ((1R,3R)-3-(7-(4-((bis(methyl-d3)amino)methyl)phenyl)-8-(1,1-dimethyl-1,3-dihydroisobenzofuran-5-yl)-3-(methyl-d3)-2-oxo-3,6-dihydroimidazo[4,5-d]pyrrolo[2,3-b]pyridin-1(2H)-yl)cyclopentyl)carbamate] | ≤ 10 | ****** (selectivity of >12500-fold) | ⋄⋄ (>0.005 to ≤0.02) |  |  |  | > 500 | 1250 to 2500
